Earlier results on one compound are cited in US12465571B2, “Solid dosage form” (University of Lancashire, priority 2016, dated 2025).

The conditions of this data set: high solubility and high permeability.

For the compound `Cn1c(=O)c2[nH]cnc2n(C)c1=O` [theophylline, Theophylline], the “Biopharmaceutical Classification System class” value is “class I”.
